Results published in paper PMC11345766, “Computational Design of Pore-Forming Peptides with Potent Antimicrobial and Anticancer Activities” (Journal of Medicinal Chemistry, 2024).
Where “and” joins values, the source holds several entries; their conditions need not be identical. Equal values may be shown once. Ends that are not written are not given here.

Columns and labels:
[1] = tested on: S. carnosus (CCM 4838T); experiment: microbe, parasite or virus in culture; format: cell-based, Staphylococcus carnosus; details: CCM 4838, 24 h; read-out: Antimicrobial activity (MIC) S. carnosus (CCM 4838T)
How it was run: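 Bacteria were grown on MHA for 24 h, subcultured in MHB for 6 h at 37 °C and diluted to 10^6 CFU/mL. Compounds were serially diluted from 50 to 0.1 μM, inoculated and incubated for 24 h at 37 °C. MIC was the lowest concentration with no visible turbidity.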

[2] = tested on: cytoplasmic membranes of ESKAPEE pathogens; experiment: Cytoplasmic membrane depolarization assay, DiSC3-(5); format: cell-based; details: both Gram-negative and Gram-positive bacteria; peptides at their MICs
Procedure: First, we investigated the ability of the peptides to depolarize the cytoplasmic membranes of ESKAPEE pathogens. […] Bacteria were incubated with 3,3′-dipropylthiadicarbocyanine iodide [DiSC3-(5)] dye, and the dye fluorescence was measured after peptide treatment. DiSC3-(5) is sensitive to transmembrane potential changes. It accumulates in the cytoplasmic membrane with quenched fluorescence, and when the membrane potential becomes unbalanced, the dye molecules translocate to the outside environment, resulting in increased fluorescence.[56] The three potent AMPs (LP1, LP18, and LP28) and the H-variant (LP40) depolarized the cytoplasmic membrane of both Gram-negative and Gram-positive bacteria at their MICs.
The cytoplasmic membrane depolarization activity of the peptides was determined by measuring the fluorescence of membrane-potential-sensitive dye DiSC3-(5). A. baumannii ATCC 19606, E. coli ATCC 11775, K. pneumoniae ATCC 13883, P. aeruginosa PAO1, S. aureus ATCC 12600, and E. faecium ATCC 700221 were grown to mid log phase (OD600 = 0.5) at 37 °C and then centrifuged (10,000 rpm at 4 °C for 10 min). Cells were washed twice with a buffer containing 20 mM glucose and 5 mM HEPES (pH 7.2) and diluted 1:10 (OD600 = 0.05) in a buffer with 0.1 M KCl, […], and 5 mM HEPES (pH 7.2). Fluorescence was recorded at the excitation and emission wavelengths of 622 and 670 nm, respectively. Bacterial solution (100 μL) was incubated for 15 min with 20 nM of DiSC3-(5) until fluorescence reached a plateau. Changes in transmembrane potential were monitored by observing the difference in fluorescence emission intensity after adding peptides (100 μL at their MICs) for 45 min. Assay was performed in triplicate.

[3] = Calcein dye leakage assay from LUVs; format: biochemical; details: P:L 1:100; pH 7.4
How it was run: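 POPC:POPG (1:1) LUVs, extruded at 100 nm, loaded with 35 mM self-quenching calcein; free dye removed. Peptide 0.1 mM and LUVs 0.02 mM in PBS with 100 mM NaCl, P:L 1:100 to 1:10. Fluorescence at 495/520 nm, normalized to 100% leakage by 10% Triton X-100.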

[4] = tested on: A. baumannii (ATCC 19606); experiment: Neutropenic murine deep thigh infection model; format: in vivo, mouse; details: single intraperitoneal dose at 10 times the MIC; four days after treatment
Excerpt: Mice were euthanized 4 days postinfection (day 8).
Each experimental group comprised three mice.

Substance | MIC [1] [µM] | Depolarization of the cytoplasmic membrane [2] | Calcein leakage (%) from LUVs at P:L 1:100 (mol/mol) [3] | Reduction of bacterial load [4]
KKKKLKKILKKLFQFINQLDNQLQDIKQNK-NH2 [LP1] | 0.8 | depolarized | 87% and 87.1 ± 2.7% | two to three orders of magnitude
H-HHHHLKKILKKLFQFINQLDNQLQDIHHHH-OH [LP40] | > 50 | depolarized | 102.5 ± 1.2% | did not significantly reduce the bacterial load
KKKKLKKILKKLFQFINQLDNQLQDIKKKK-NH2 [LP18] | 0.2 | depolarized | 93.7 ± 3.1% | did not significantly reduce the bacterial load
